Measurements reported in the NIST ThermoML archive (doi:10.1016/j.jct.2018.01.024).

Test: mn = molality of the nth substance listed, in mol/kg
Conditions: Liquid

NC(N)=O [urea] + O
Conditions | mass density [kg/m3]
279.15 K, 101 kPa, Vibrating tube method, m1 = 0.1063 | 1001.79
279.15 K, 101 kPa, Vibrating tube method, m1 = 0.141 | 1002.39
279.15 K, 101 kPa, Vibrating tube method, m1 = 0.152 | 1002.57
279.15 K, 101 kPa, Vibrating tube method, m1 = 0.1809 | 1003.07
279.15 K, 101 kPa, Vibrating tube method, m1 = 0.2423 | 1004.12
279.15 K, 101 kPa, Vibrating tube method, m1 = 0.4362 | 1007.39
279.15 K, 101 kPa, Vibrating tube method, m1 = 0.5644 | 1009.51
279.15 K, 101 kPa, Vibrating tube method, m1 = 1.008 | 1016.61
279.15 K, 101 kPa, Vibrating tube method, m1 = 1.609 | 1025.68
279.15 K, 101 kPa, Vibrating tube method, m1 = 2.505 | 1038.19
280.15 K, 101 kPa, Vibrating tube method, m1 = 0.093 | 1001.51
280.15 K, 101 kPa, Vibrating tube method, m1 = 0.1063 | 1001.74
280.15 K, 101 kPa, Vibrating tube method, m1 = 0.141 | 1002.33
280.15 K, 101 kPa, Vibrating tube method, m1 = 0.152 | 1002.52
280.15 K, 101 kPa, Vibrating tube method, m1 = 0.1809 | 1003.02
280.15 K, 101 kPa, Vibrating tube method, m1 = 0.2423 | 1004.06
280.15 K, 101 kPa, Vibrating tube method, m1 = 0.4362 | 1007.31
280.15 K, 101 kPa, Vibrating tube method, m1 = 0.5644 | 1009.42
280.15 K, 101 kPa, Vibrating tube method, m1 = 1.008 | 1016.48
280.15 K, 101 kPa, Vibrating tube method, m1 = 1.609 | 1025.5
280.15 K, 101 kPa, Vibrating tube method, m1 = 2.505 | 1037.95
281.15 K, 101 kPa, Vibrating tube method, m1 = 0.093 | 1001.45
281.15 K, 101 kPa, Vibrating tube method, m1 = 0.1063 | 1001.67
281.15 K, 101 kPa, Vibrating tube method, m1 = 0.141 | 1002.26
281.15 K, 101 kPa, Vibrating tube method, m1 = 0.152 | 1002.46
281.15 K, 101 kPa, Vibrating tube method, m1 = 0.1809 | 1002.95
281.15 K, 101 kPa, Vibrating tube method, m1 = 0.2423 | 1003.99
281.15 K, 101 kPa, Vibrating tube method, m1 = 0.4362 | 1007.21
281.15 K, 101 kPa, Vibrating tube method, m1 = 0.5644 | 1009.31
281.15 K, 101 kPa, Vibrating tube method, m1 = 1.008 | 1016.33
281.15 K, 101 kPa, Vibrating tube method, m1 = 1.609 | 1025.3
281.15 K, 101 kPa, Vibrating tube method, m1 = 2.505 | 1037.71
282.15 K, 101 kPa, Vibrating tube method, m1 = 0.093 | 1001.37
282.15 K, 101 kPa, Vibrating tube method, m1 = 0.1063 | 1001.6
282.15 K, 101 kPa, Vibrating tube method, m1 = 0.141 | 1002.18
282.15 K, 101 kPa, Vibrating tube method, m1 = 0.152 | 1002.37
282.15 K, 101 kPa, Vibrating tube method, m1 = 0.1809 | 1002.86
282.15 K, 101 kPa, Vibrating tube method, m1 = 0.2423 | 1003.89
282.15 K, 101 kPa, Vibrating tube method, m1 = 0.4362 | 1007.1
282.15 K, 101 kPa, Vibrating tube method, m1 = 0.5644 | 1009.18
282.15 K, 101 kPa, Vibrating tube method, m1 = 1.008 | 1016.17
282.15 K, 101 kPa, Vibrating tube method, m1 = 1.609 | 1025.12
282.15 K, 101 kPa, Vibrating tube method, m1 = 2.505 | 1037.45
283.15 K, 101 kPa, Vibrating tube method, m1 = 0.093 | 1001.28
283.15 K, 101 kPa, Vibrating tube method, m1 = 0.1063 | 1001.51
283.15 K, 101 kPa, Vibrating tube method, m1 = 0.141 | 1002.09
283.15 K, 101 kPa, Vibrating tube method, m1 = 0.152 | 1002.27
283.15 K, 101 kPa, Vibrating tube method, m1 = 0.1809 | 1002.76
283.15 K, 101 kPa, Vibrating tube method, m1 = 0.2423 | 1003.78
283.15 K, 101 kPa, Vibrating tube method, m1 = 0.4362 | 1006.97
283.15 K, 101 kPa, Vibrating tube method, m1 = 0.5644 | 1009.04
283.15 K, 101 kPa, Vibrating tube method, m1 = 1.008 | 1016
283.15 K, 101 kPa, Vibrating tube method, m1 = 1.609 | 1024.89
283.15 K, 101 kPa, Vibrating tube method, m1 = 2.505 | 1037.2
288.15 K, 101 kPa, Vibrating tube method, m1 = 0.093 | 1000.63
288.15 K, 101 kPa, Vibrating tube method, m1 = 0.1063 | 1000.85
288.15 K, 101 kPa, Vibrating tube method, m1 = 0.141 | 1001.42
288.15 K, 101 kPa, Vibrating tube method, m1 = 0.152 | 1001.6
288.15 K, 101 kPa, Vibrating tube method, m1 = 0.1809 | 1002.08
288.15 K, 101 kPa, Vibrating tube method, m1 = 0.2423 | 1003.08
288.15 K, 101 kPa, Vibrating tube method, m1 = 0.4362 | 1006.2
288.15 K, 101 kPa, Vibrating tube method, m1 = 0.5644 | 1008.22
288.15 K, 101 kPa, Vibrating tube method, m1 = 1.008 | 1015
288.15 K, 101 kPa, Vibrating tube method, m1 = 1.609 | 1023.7
288.15 K, 101 kPa, Vibrating tube method, m1 = 2.505 | 1035.73
288.15 K, 101 kPa, Vibrating tube method, m1 = 3.376 | 1046.46
288.15 K, 101 kPa, Vibrating tube method, m1 = 4.33 | 1057.3
288.15 K, 101 kPa, Vibrating tube method, m1 = 5.39 | 1068.26
288.15 K, 101 kPa, Vibrating tube method, m1 = 8 | 1091.62
288.15 K, 101 kPa, Vibrating tube method, m1 = 9.9 | 1105.86
288.15 K, 101 kPa, Vibrating tube method, m1 = 12.8 | 1124.47
288.15 K, 10000 kPa, Constant-volume piezometry, m1 = 0.1809 | 1006.62
288.15 K, 10000 kPa, Constant-volume piezometry, m1 = 0.4362 | 1010.71
288.15 K, 10000 kPa, Constant-volume piezometry, m1 = 0.5644 | 1012.73
288.15 K, 10000 kPa, Constant-volume piezometry, m1 = 1.609 | 1028.1
288.15 K, 10000 kPa, Constant-volume piezometry, m1 = 2.505 | 1040.04
288.15 K, 10000 kPa, Constant-volume piezometry, m1 = 3.376 | 1050.69
288.15 K, 10000 kPa, Constant-volume piezometry, m1 = 5.39 | 1072.37
288.15 K, 10000 kPa, Constant-volume piezometry, m1 = 8 | 1095.6
288.15 K, 10000 kPa, Constant-volume piezometry, m1 = 10.99 | 1117.15
288.15 K, 10000 kPa, Constant-volume piezometry, m1 = 12.8 | 1128.28
288.15 K, 25000 kPa, Constant-volume piezometry, m1 = 0.1809 | 1013.33
288.15 K, 25000 kPa, Constant-volume piezometry, m1 = 0.4362 | 1017.37
288.15 K, 25000 kPa, Constant-volume piezometry, m1 = 0.5644 | 1019.38
288.15 K, 25000 kPa, Constant-volume piezometry, m1 = 1.609 | 1034.57
288.15 K, 25000 kPa, Constant-volume piezometry, m1 = 2.505 | 1046.37
288.15 K, 25000 kPa, Constant-volume piezometry, m1 = 3.376 | 1056.91
288.15 K, 25000 kPa, Constant-volume piezometry, m1 = 5.39 | 1078.39
288.15 K, 25000 kPa, Constant-volume piezometry, m1 = 8 | 1101.46
288.15 K, 25000 kPa, Constant-volume piezometry, m1 = 10.99 | 1122.84
288.15 K, 25000 kPa, Constant-volume piezometry, m1 = 12.8 | 1133.9
288.15 K, 50000 kPa, Constant-volume piezometry, m1 = 0.1809 | 1024.08
288.15 K, 50000 kPa, Constant-volume piezometry, m1 = 0.4362 | 1028.05
288.15 K, 50000 kPa, Constant-volume piezometry, m1 = 0.5644 | 1029.99
288.15 K, 50000 kPa, Constant-volume piezometry, m1 = 1.609 | 1044.87
288.15 K, 50000 kPa, Constant-volume piezometry, m1 = 2.505 | 1056.4
288.15 K, 50000 kPa, Constant-volume piezometry, m1 = 3.376 | 1066.74
288.15 K, 50000 kPa, Constant-volume piezometry, m1 = 5.39 | 1087.86
288.15 K, 50000 kPa, Constant-volume piezometry, m1 = 8 | 1110.67
288.15 K, 50000 kPa, Constant-volume piezometry, m1 = 10.99 | 1131.87
288.15 K, 50000 kPa, Constant-volume piezometry, m1 = 12.8 | 1142.81
288.15 K, 75000 kPa, Constant-volume piezometry, m1 = 0.1809 | 1034.29
288.15 K, 75000 kPa, Constant-volume piezometry, m1 = 0.4362 | 1038.17
288.15 K, 75000 kPa, Constant-volume piezometry, m1 = 0.5644 | 1040.07
288.15 K, 75000 kPa, Constant-volume piezometry, m1 = 1.609 | 1054.62
288.15 K, 75000 kPa, Constant-volume piezometry, m1 = 2.505 | 1065.93
288.15 K, 75000 kPa, Constant-volume piezometry, m1 = 3.376 | 1076.06
288.15 K, 75000 kPa, Constant-volume piezometry, m1 = 5.39 | 1096.81
288.15 K, 75000 kPa, Constant-volume piezometry, m1 = 8 | 1119.36
288.15 K, 75000 kPa, Constant-volume piezometry, m1 = 10.99 | 1140.4
288.15 K, 75000 kPa, Constant-volume piezometry, m1 = 12.8 | 1151.22
288.15 K, 100000 kPa, Constant-volume piezometry, m1 = 0.1809 | 1043.99
288.15 K, 100000 kPa, Constant-volume piezometry, m1 = 0.4362 | 1047.8
